{"source": "PubChem BioAssay AID1963425", "about": "(Molecular Pharmacology Branch, DTP, NCI, 2024)", "tested_on": "323965-272-R-J2-PDC complex spheroid growth, % test/control", "test": "Anticancer human tumor 323965-272-R-J2-PDC patient-derived pancreatic carcinoma cell line growth inhibition [Asc]", "settings": "for viability, T/C: stronger effect = lower value", "method_in_brief": "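Spheroid model: tumor line + HUVEC + hMSC. Single agents and combinations; top conc. at/near clinical Cmax (10 microM if undetermined), half-log dilutions. DMSO stocks at 800-fold test concentration.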", "note": "Where “and” joins values, the source holds several entries; their conditions need not be identical. Identical values can stand only once.", "data": [{"molecule": "Cc1nc(N2CCC3(CC2)COC(C)C3N)c(CO)nc1Sc1ccnc(N)c1Cl", "note": "(centres undefined);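 further: compound exposure lasted 7 days starting three days after spheroid seeding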;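 on viability, T/C: 100% = DMSO vehicle control wells with viability set relative to vehicle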", "values": [{"measurement": "viability, T/C", "setting": "compound 0.00949 µM", "value": "102% and 96% and 110%"}, {"measurement": "viability, T/C", "setting": "compound 0.03 µM", "value": "83.6% and 82.4% and 93.1%"}, {"measurement": "viability, T/C", "setting": "compound 0.0949 µM", "value": "78.5% and 71.7% and 79.6%"}, {"measurement": "viability, T/C", "setting": "compound 0.3 µM", "value": "63.5% and 73.1% and 66%"}, {"measurement": "viability, T/C", "setting": "compound 0.949 µM", "value": "54.4% (2×) and 55%"}, {"measurement": "viability, T/C", "setting": "compound 3 µM", "value": "50.1% and 45.6% and 49.1%"}, {"measurement": "IC50", "setting": "curve of compound", "value": "2620 nM and 1920 nM and 2500 nM"}]}, {"molecule": "CCN1C(C(=O)NC23CCC(C(=O)O)(CC2)CC3)C(c2cccc(Cl)c2F)C2(C(=O)Nc3cc(Cl)ccc32)C12CCCCC2", "note": "(centres undefined) + Cc1c(S(C)(=O)=O)c(-c2cc(F)cc(N3CCN(c4ccc(NS(=O)(=O)c5ccc(NC(CCN6CCC(C(=O)OCCCP(=O)(O)O)CC6)CSc6ccccc6)c(S(=O)(=O)C(F)(F)F)c5)cc4)CC3)c2)c(-c2ccc(Cl)cc2)n1C(C)C", "values": [{"measurement": "IC50", "setting": "curve of first compound, second compound 0.0316 µM", "value": "> 3000", "unit": "nM"}, {"measurement": "IC50", "setting": "curve of first compound, second compound 0.1 µM", "value": "> 3000", "unit": "nM"}, {"measurement": "IC50", "setting": "curve of first compound, second compound 0.316 µM", "value": "> 3000", "unit": "nM"}, {"measurement": "IC50", "setting": "curve of first compound, second compound 1 µM", "value": "> 3000", "unit": "nM"}, {"measurement": "IC50", "setting": "curve of first compound, second compound 3.16 µM", "value": 1870, "unit": "nM"}, {"measurement": "IC50", "setting": "curve of first compound, second compound 10 µM", "value": 1180, "unit": "nM"}, {"measurement": "viability, T/C", "setting": "second compound 0.0316 µM, first compound 0.00949 µM", "value": 117, "unit": "%"}, {"measurement": "viability, T/C", "setting": "second compound 0.0316 µM, first compound 0.03 µM", "value": 103, "unit": "%"}, {"measurement": "viability, T/C", "setting": "second compound 0.0316 µM, first compound 0.0949 µM", "value": 88.5, "unit": "%"}, {"measurement": "viability, T/C", "setting": "second compound 0.0316 µM, first compound 0.3 µM", "value": 101, "unit": "%"}, {"measurement": "viability, T/C", "setting": "second compound 0.0316 µM, first compound 0.949 µM", "value": 98.8, "unit": "%"}, {"measurement": "viability, T/C", "setting": "second compound 0.0316 µM, first compound 3 µM", "value": 93.8, "unit": "%"}, {"measurement": "viability, T/C", "setting": "second compound 0.1 µM, first compound 0.00949 µM", "value": 110, "unit": "%"}, {"measurement": "viability, T/C", "setting": "second compound 0.1 µM, first compound 0.03 µM", "value": 94.2, "unit": "%"}, {"measurement": "viability, T/C", "setting": "second compound 0.1 µM, first compound 0.0949 µM", "value": 104, "unit": "%"}, {"measurement": "viability, T/C", "setting": "second compound 0.1 µM, first compound 0.3 µM", "value": 101, "unit": "%"}, {"measurement": "viability, T/C", "setting": "second compound 0.1 µM, first compound 0.949 µM", "value": 88.4, "unit": "%"}, {"measurement": "viability, T/C", "setting": "second compound 0.1 µM, first compound 3 µM", "value": 81.8, "unit": "%"}, {"measurement": "viability, T/C", "setting": "second compound 0.316 µM, first compound 0.00949 µM", "value": 89.4, "unit": "%"}, {"measurement": "viability, T/C", "setting": "second compound 0.316 µM, first compound 0.03 µM", "value": 97.9, "unit": "%"}, {"measurement": "viability, T/C", "setting": "second compound 0.316 µM, first compound 0.0949 µM", "value": 94.5, "unit": "%"}, {"measurement": "viability, T/C", "setting": "second compound 0.316 µM, first compound 0.3 µM", "value": 87.1, "unit": "%"}, {"measurement": "viability, T/C", "setting": "second compound 0.316 µM, first compound 0.949 µM", "value": 90, "unit": "%"}, {"measurement": "viability, T/C", "setting": "second compound 0.316 µM, first compound 3 µM", "value": 65.3, "unit": "%"}, {"measurement": "viability, T/C", "setting": "second compound 1 µM, first compound 0.00949 µM", "value": 95.3, "unit": "%"}, {"measurement": "viability, T/C", "setting": "second compound 1 µM, first compound 0.03 µM", "value": 81.8, "unit": "%"}, {"measurement": "viability, T/C", "setting": "second compound 1 µM, first compound 0.0949 µM", "value": 86.5, "unit": "%"}, {"measurement": "viability, T/C", "setting": "second compound 1 µM, first compound 0.3 µM", "value": 80.3, "unit": "%"}, {"measurement": "viability, T/C", "setting": "second compound 1 µM, first compound 0.949 µM", "value": 81.8, "unit": "%"}, {"measurement": "viability, T/C", "setting": "second compound 1 µM, first compound 3 µM", "value": 54, "unit": "%"}, {"measurement": "viability, T/C", "setting": "second compound 3.16 µM, first compound 0.00949 µM", "value": 70.6, "unit": "%"}, {"measurement": "viability, T/C", "setting": "second compound 3.16 µM, first compound 0.03 µM", "value": 76.3, "unit": "%"}, {"measurement": "viability, T/C", "setting": "second compound 3.16 µM, first compound 0.0949 µM", "value": 75.9, "unit": "%"}, {"measurement": "viability, T/C", "setting": "second compound 3.16 µM, first compound 0.3 µM", "value": 69.4, "unit": "%"}, {"measurement": "viability, T/C", "setting": "second compound 3.16 µM, first compound 0.949 µM", "value": 64.7, "unit": "%"}, {"measurement": "viability, T/C", "setting": "second compound 3.16 µM, first compound 3 µM", "value": 40.1, "unit": "%"}, {"measurement": "viability, T/C", "setting": "second compound 10 µM, first compound 0.00949 µM", "value": 71.7, "unit": "%"}, {"measurement": "viability, T/C", "setting": "second compound 10 µM, first compound 0.03 µM", "value": 67, "unit": "%"}, {"measurement": "viability, T/C", "setting": "second compound 10 µM, first compound 0.0949 µM", "value": 71.9, "unit": "%"}, {"measurement": "viability, T/C", "setting": "second compound 10 µM, first compound 0.3 µM", "value": 62.1, "unit": "%"}, {"measurement": "viability, T/C", "setting": "second compound 10 µM, first compound 0.949 µM", "value": 54.2, "unit": "%"}, {"measurement": "viability, T/C", "setting": "second compound 10 µM, first compound 3 µM", "value": 34, "unit": "%"}]}]}
